The text below walks through data of ChEMBL document CHEMBL1201862, “PubChem BioAssay data set” (2004).

SMILES strings stand for the structures.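 A five-concentration, 48-hour dose response in 96-well plates underlies each endpoint, interpolated linearly between surrounding concentrations. At the GI50, growth is halved.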 Calls of active or inactive are those of the source. Rule as the data show it: active = GI50 up to about 1.1 µM and inactive = higher.

Test systems include SNB-19; A498; SK-OV-3; SN12C; SF-268; M14; SW-620; UO-31; Malme-3M; U-251; CCRF-CEM; OVCAR-4; NCI-H226; IGROV-1; HT-29; SF-295; KM12.
What all share (test): NCI anticancer screen, dose series, 48 h

Consider `C/C=C(/I)CBr`, for which the GI50 in the assay with SNB-19 is 23.7 µM (inactive); with A498, > 10 µM (inactive); in the assay with SK-OV-3, 30.8 µM (inactive); in the assay on SN12C it was 17.2 µM (inactive); with SF-268, 23.6 µM (inactive); in the assay on M14, 13.8 µM (inactive). The GI50 with SW-620 was 13.6 µM (inactive); with UO-31, 18.9 µM (inactive); in the assay with Malme-3M it was 16 µM (inactive); in the assay with U-251 it was > 10 µM (inactive); with CCRF-CEM, 3.78 µM (inactive); in the assay with OVCAR-4, 17.3 µM (inactive). In addition, the GI50 with NCI-H226 is 20.6 µM (inactive); in the assay with IGROV-1, 16 µM (inactive).
As for `CC1NOC(=O)C1/N=N/c1cccc(Cl)c1` (stereo unspecified), the GI50 with SNB-19 was 37.7 µM (inactive); in the assay with HT-29, 27.4 µM (inactive); with A498, 17.3 µM (inactive); in the assay with SK-OV-3, 28.8 µM (inactive); in the assay on SN12C, 21.7 µM (inactive); with SF-268, 23.1 µM (inactive). In addition, the GI50 is 34 µM (inactive) in the assay with SF-295; 62.2 µM (inactive) with M14; 10 µM (inactive) in the assay with SW-620; 35.6 µM (inactive) with UO-31; 40.7 µM (inactive) with KM12; 29.7 µM (inactive) in the assay with Malme-3M. The GI50 was 25.2 µM (inactive) in the assay on U-251; 21.4 µM (inactive) with CCRF-CEM; 32.9 µM (inactive) in the assay on OVCAR-4; 32.3 µM (inactive) in the assay with NCI-H226; 40.8 µM (inactive) with IGROV-1.
On to `O=C(c1ccc(Cl)cc1)c1ccc(OCC(=O)N2CCN(c3ccccc3)CC2)cc1`, for which the GI50 in the assay with SNB-19 is > 100 µM (inactive); in the assay with HT-29 it was > 100 µM (inactive); in the assay with A498, 32.1 µM (inactive); in the assay on SK-OV-3, > 100 µM (inactive); with SN12C, > 100 µM (inactive); in the assay on SF-268 it was > 100 µM (inactive). For the same compound, the GI50 with SF-295, in the assay on M14, with SW-620, with UO-31, in the assay on KM12 and in the assay with Malme-3M was > 100 µM (inactive) each time. Also, the GI50 with U-251, in the assay with CCRF-CEM, in the assay with OVCAR-4, with NCI-H226 and with IGROV-1 was > 100 µM (inactive) throughout.
Regarding `OC(c1ccccn1)C1CNc2ccccc21` (stereo unspecified), the GI50 with SNB-19, with HT-29, in the assay with A498, in the assay with SK-OV-3, with SN12C and in the assay on SF-268 was > 100 µM (inactive) each time. Besides, the GI50 in the assay with SF-295, with M14, in the assay on SW-620, in the assay with UO-31, in the assay on KM12 and in the assay on Malme-3M was > 100 µM (inactive) each time. Further, the GI50 with U-251, in the assay with CCRF-CEM, with OVCAR-4, in the assay on NCI-H226 and in the assay with IGROV-1 was > 100 µM (inactive) throughout.
As for `CC(Oc1cc2oc(=O)cc(-c3ccccc3)c2cc1Cl)C(=O)O` (stereo unspecified), the GI50 in the assay with SNB-19, in the assay with HT-29, in the assay on A498, in the assay on SK-OV-3, in the assay on SN12C and with SF-268 was > 100 µM (inactive) in each case. Moreover, the GI50 in the assay on SF-295, with M14, in the assay with SW-620, in the assay with UO-31, in the assay with KM12 and in the assay on Malme-3M was > 100 µM (inactive) in each case. The GI50 in the assay on U-251, with CCRF-CEM, in the assay on OVCAR-4, in the assay on NCI-H226 and in the assay with IGROV-1 was > 100 µM (inactive) throughout.
As to `COc1ccc(/C=C/C(=O)c2c(-c3ccccc3)nn(C)c(=O)c2N2CC2C)cc1` (stereo unspecified), the GI50 was 37.8 µM (inactive) in the assay on SNB-19; 32.4 µM (inactive) with HT-29; 23.9 µM (inactive) with A498; 30.2 µM (inactive) with SK-OV-3; 37 µM (inactive) with SN12C; 26.8 µM (inactive) in the assay with SF-268. Moreover, the GI50 was 33.8 µM (inactive) with SF-295; 28.8 µM (inactive) in the assay with M14; 26.4 µM (inactive) with SW-620; 70.3 µM (inactive) with UO-31; 30.3 µM (inactive) in the assay with KM12; 35.7 µM (inactive) with Malme-3M. Further, the GI50 with U-251 is 27.9 µM (inactive); with CCRF-CEM it was 22.9 µM (inactive); in the assay with OVCAR-4, 27.9 µM (inactive); with NCI-H226 it was 45.3 µM (inactive); in the assay on IGROV-1 it was 59.3 µM (inactive).
Regarding `CCCCCCCC(=O)NCC(O)CNC(=O)CCCCCCC`, the GI50 with SNB-19, in the assay on HT-29, in the assay on A498, in the assay with SK-OV-3, with SN12C and in the assay on SF-268 was > 100 µM (inactive) in each case. Also, the GI50 in the assay on SF-295, in the assay on M14, with SW-620, in the assay on UO-31, in the assay on KM12 and in the assay with Malme-3M was > 100 µM (inactive) each time. In addition, the GI50 in the assay with U-251 is > 100 µM (inactive); in the assay with CCRF-CEM it was 88.1 µM (inactive); in the assay with OVCAR-4, > 100 µM (inactive); in the assay with NCI-H226 it was > 100 µM (inactive); with IGROV-1, > 100 µM (inactive).
Regarding `C=CCOC(C)n1c(C)cc(=O)n(C(C)OCC=C)c1=O` (stereo unspecified), the GI50 in the assay on SNB-19, in the assay on HT-29, in the assay with A498, in the assay with SK-OV-3, in the assay on SN12C and with SF-268 was > 100 µM (inactive) throughout. Further, the GI50 with SF-295, in the assay with M14, in the assay with SW-620, in the assay on UO-31, with Malme-3M and in the assay with U-251 was > 100 µM (inactive) in each case. For the same compound, the GI50 in the assay on CCRF-CEM, in the assay with OVCAR-4, in the assay with NCI-H226 and in the assay with IGROV-1 was > 100 µM (inactive) throughout.
As for `Nc1nc(N)c(N=O)c(Nc2ccc(Br)cc2)n1`, the GI50 with SNB-19 is 45.1 µM (inactive); in the assay with HT-29, 15.8 µM (inactive); with A498, 17.6 µM (inactive); in the assay on SK-OV-3, 32.4 µM (inactive); in the assay with SN12C it was 17.8 µM (inactive); in the assay on SF-268, 12.9 µM (inactive). Moreover, the GI50 is 29 µM (inactive) in the assay with SF-295; 16.2 µM (inactive) in the assay on M14; 33.5 µM (inactive) in the assay on SW-620; 33.8 µM (inactive) with KM12; 13.3 µM (inactive) in the assay on Malme-3M; 15.9 µM (inactive) in the assay with U-251. The GI50 was 18.2 µM (inactive) in the assay with CCRF-CEM, 48 µM (inactive) with OVCAR-4, 32.2 µM (inactive) with NCI-H226 and 3.46 µM (inactive) in the assay on IGROV-1.
Regarding `COC(=O)C(CC(C)=O)CS(=O)(=O)CC(=O)C(=O)Nc1cccc([N+](=O)[O-])c1` (stereo unspecified), the GI50 with SNB-19, in the assay on A498, in the assay with SK-OV-3, with SN12C, in the assay with SF-268 and in the assay on M14 was > 100 µM (inactive) throughout. The GI50 with SW-620, in the assay with UO-31, with KM12, with Malme-3M, with U-251 and in the assay with CCRF-CEM was > 100 µM (inactive) each time. In addition, the GI50 in the assay with OVCAR-4, in the assay on NCI-H226 and in the assay on IGROV-1 was > 100 µM (inactive) in each case.
As to `COc1ccc(NS(=O)(=O)c2ccc(/N=C3\C=C(Nc4ccc(S(=O)(=O)Nc5ccc(OC)nn5)cc4)C(=O)c4ccccc43)cc2)nn1`, the GI50 with SNB-19 is 18.8 µM (inactive); in the assay with HT-29, 20.5 µM (inactive); in the assay on A498 it was 15.3 µM (inactive); in the assay with SK-OV-3 it was 18.1 µM (inactive); with SN12C it was 18.1 µM (inactive); in the assay on SF-268, 21.4 µM (inactive). The GI50 in the assay on SF-295 was 17.1 µM (inactive); with M14, 17.5 µM (inactive); with SW-620, 18.9 µM (inactive); in the assay on UO-31, 19.7 µM (inactive); in the assay on KM12 it was 16.7 µM (inactive); in the assay on Malme-3M, 19 µM (inactive). Moreover, the GI50 in the assay with U-251 was 18 µM (inactive); in the assay with CCRF-CEM it was > 100 µM (inactive); with OVCAR-4 it was 18.3 µM (inactive); in the assay with NCI-H226, 19.3 µM (inactive); in the assay on IGROV-1 it was 23.9 µM (inactive).
As to `COc1cc(/C=C\c2ccc(OC(C)=O)cc2)cc(OC)c1OC`, the GI50 with SNB-19 is 0.668 µM (active); with HT-29 it was 10.8 µM (inactive); with A498, 22.4 µM (inactive); in the assay on SK-OV-3, > 100 µM (inactive); in the assay on SN12C, 4.22 µM (inactive); in the assay with SF-268, 9.59 µM (inactive). The GI50 in the assay with M14 was 4.49 µM (inactive); in the assay on SW-620, 3.36 µM (inactive); in the assay with UO-31, 4.08 µM (inactive); in the assay on KM12, 2.21 µM (inactive); in the assay with Malme-3M, 2.06 µM (inactive); in the assay on U-251, 2.37 µM (inactive). The GI50 was 4.06 µM (inactive) with CCRF-CEM, 19.1 µM (inactive) in the assay on OVCAR-4, 33.7 µM (inactive) with NCI-H226 and 7.59 µM (inactive) in the assay on IGROV-1.
